From PMC12053642, “Oral PRI-002 treatment in patients with MCI or mild AD: a randomized, double-blind phase 1b trial” (Nature Communications, 2025)
Several values for one entry are separate records, joined by “and”; a condition that tells them apart may be missing. Identical values can stand only once. Square brackets hold non-standard residues; d marks the D form. Peptide text beside a SMILES is read from it.

Key:
[1] = tested on: patients with MCI or mild dementia due to AD; assay: Safety laboratory (hematology, clinical chemistry, hematoserology); format: in vivo, human; details: 300 mg q.d. oral 28 d
Protocol: All safety parameters and laboratory values (urinalysis, complete blood count (CBC), Quick, partial thromboplastin time (PTT), creatinine, […] (CK), […] (CRP), alanine aminotransaminase (ALT), aspartate aminotransferase (AST)) as well as ECG, EEG, MRI, and vital signs were analyzed in a descriptive manner according to their scales (frequencies, means). In order to compare a variable between both groups (placebo vs PRI-002) at one time point, a parameter free Wilcoxon rank sum test was used. As described in the statistical analysis plan, linear mixed models with random effect were used for the comparison of longitudinal effects between both groups (placebo vs PRI-002). ANOVA was also applied to assess longitudinal effects. Since the results are similar to the linear mixed models, results are presented using linear mixed models. A 95% confidence interval was used to check whether the parameters are within their normal ranges. The p value (p < 0.05) for the word list test was not corrected for multiplicity. All statistical data analysis was performed with the certified software Statistical Analysis System (SAS) by MicroDiscovery GmbH (Berlin, Germany).

[2] = tested on: patients with MCI or mild dementia due to AD; assay: CERAD word list learning and recall; format: in vivo, human; design: key to WL Recall (Word list recall test), Mean / WL Recall: words recalled after delay, out of the 10-word list; key to WL learn (CERAD Word list learning), Mean / WL learn: words recalled summed over 3 trials of a 10-word list; details: for WL Recall / WL learn: individual patient values, PRI-002 group; for WL learn, individual patients: one line per patient
Protocol: The CERAD Word Learning Test is a part of the CERAD cognitive test battery and assesses memory function, particularly for ADe and other dementias[34],[35]. It includes three parts: immediate recall, delayed recall, and recognition. During the test administration, a list of 10 words is read aloud three times, with the participant recalling as many as possible after each trial (immediate recall). After a delay of 5–10 min, they attempt to recall the words again (delayed recall), followed by a recognition task where they identify original words from a mixed list (recognition). The scores from the CERAD Word Learning Test are interpreted using normative data, which consider the participant’s age, gender, and education level. Normal range scores are considered between the 16th and 84th percentiles (z-score -1 to +1). For MCI scores between the 2nd and 15th percentiles (z-score -1 to -2) are expected. For significant cognitive impairment scores below the 2nd percentile (z-score < -2) are considered.

[3] = Day 1 of the MAD study; dose 320 mg/person; cited from earlier work
Protocol: On the two test days (Day 1 and Day 28), plasma levels were highly variable (Fig. 1). Coefficient of variations (CVs) were clearly above 100% at 0.5 h after the first treatment and at the pre-treatment time of Day 28 (Supplementary Table 8). […] The high variability is due to a non-Gaussian data distribution. Mean maximum plasma levels on Day 1 (Day 28) of 4.46 ± 3.71 ng/ml (12.6 ...

[4] = Pharmacokinetics of PRI-002 in plasma; details: 300 mg q.d. oral; for AUC(0-t): AUC 0-4 hours
Protocol: The effect on biomarker was assessed during baseline and after 28 days of medication. CSF collection and blood sampling were performed to determine PRI-002 concentration, which was conducted by Nuvisan (Neu-Ulm, Germany) and to exploratively estimate the effect of PRI-002 on the modulation of Aβ 1-40, Aβ 1-42, Aβ oligomers, total tau (t-tau), and phospho tau (p-tau). Aβ 1-40, Aβ 1-42, t-tau and p-tau181 were measured by immunoassay, using the Lumipulse platform (Fujirebio, Tokyo, Japan) and Aβ oligomers concentrations were determined using sFIDA technology[31]–[33] by attyloid GmbH (Düsseldorf, Germany). The effect of PRI-002 on cognitive and functional performance was measured by repetitively applying the CERAD+ battery and the Clinical Dementia Rating (CDR) at baseline, at Day 28 and additionally at the last visit (Day 56).
Secondary endpoints included the evaluation of pharmacokinetic characteristics of PRI-002 by determination of maximum plasma concentration (Cmax), time to reach maximum plasma concentration (Tmax), half-life (t1/2) calculated from PRI-002 plasma concentrations; and the determination of CSF concentrations of PRI-002.
4 Pharmacokinetic sampling X X
1 Heart rate and blood pressure: Day 1: at pre-dose and 2 hours±15 minutes; Day 14 and 28: at pre-
dose; 2 ECG Day 1: at pre-dose and 2 hours ± 15 minutes; Day 14 and 28: at pre-dose; 3 Safety
MRI was scheduled at screening and within three days after Day 28 and Day 56;4 Pharmacokinetic
sampling Day 1 and Day 28: at pre-dose, 30 minutes ± 15 minutes, 1 hour ± 15 minutes, 2
hours ± 15 minutes, and 4 hours ± 15 minutes.

[5] = EoT (Day 28), geometric mean ± SD
[6] = FU EoS (Day 56), geometric mean ± SD

CC(C)C[C@@H](NC(=O)[C@H](NC(=O)[C@H]1CCCN1)[C@H](C)O)C(=O)N[C@H](Cc1c[nH]cn1)C(=O)N[C@@H](C(=O)N[C@H](Cc1c[nH]cn1)C(=O)N[C@H](CC(N)=O)C(=O)N[C@H](CCCNC(=N)N)C(=O)N[C@H](CCCNC(=N)N)C(=O)N[C@H](CCCNC(=N)N)C(=O)N[C@H](CCCNC(=N)N)C(=O)N[C@H](CCCNC(=N)N)C(N)=O)[C@H](C)O [PRI-002] (H-[dP][dT][dL][dH][dT][dH][dN][dR][dR][dR][dR][dR]-NH2; N-terminus and C-terminus assumed)
Hematocrit ([1]; Baseline (Day 1), geometric mean ± SD): 0.38±0.03 l/l
Erythrocyte ([1]; Day 14, geometric mean ± SD): 4.14 ± 0.42 pL⁻¹
Leucocyte ([1]; Day 14, geometric mean ± SD): 5.95 ± 1.71 nL⁻¹
PTT ([1]; Day 14, geometric mean ± SD): 31.60 ± 3.95 s
Quick value (prothrombin time) ([1]; Day 14, geometric mean ± SD): 96.99±21.30%
Erythrocyte [1, 5]: 4.06 ± 0.44 pL⁻¹
Leucocyte [1, 5]: 5.86 ± 1.81 nL⁻¹
PTT [1, 5]: 29.71 ± 1.94 s
Quick value (prothrombin time) [1, 5]: 101.13±9.55%
Erythrocyte [1, 6]: 4.10 ± 0.50 pL⁻¹
Hematocrit [1, 6]: 0.40±0.03 l/l
Leucocyte [1, 6]: 5.66 ± 1.41 nL⁻¹
PTT [1, 6]: 30.96 ± 3.11 s
Quick value (prothrombin time) [1, 6]: 98.71±21.08%
Hematocrit ([1]; Screening (Day 0), geometric mean ± SD): 0.39±0.03 l/l
changes in laboratory parameters (clinical chemistry, blood count, hematoserology) ([1]; screening to midterm visit to end of treatment): no clinically relevant changes
WL Recall ([2]; Day 1): 3 and 4 and 1 and 5 and 7 and 9
WL learn ([2]; Day 1): 14 and 10 and 13 and 11 and 20 and 16 and 25
WL learn (CERAD Word list learning), Mean ([2]; Day 28 (end of treatment), n=8, 300 mg q.d. oral 28 d): 17.3 and 17.25
WL Recall ([2]; Day 28): 4 and 5 and 0 and 6 and 10 and 7
WL learn ([2]; Day 28): 15 and 14 and 12 and 16 and 25 and 17
WL Recall (Word list recall test), Mean ([2]; Day 28, n=8, 300 mg q.d. oral 28 d): 6.0
WL learn, individual patients ([2]; Day 28, 300 mg q.d. oral 28 d): 16 and 25 (2×) and 17 and 14 (2×) and 15 and 12
WL learn (CERAD Word list learning), Mean ([2]; Day 56 (End of Study), n=9, PV 0.036 vs placebo (Wilcoxon), 300 mg q.d. oral 28 d): 19.3 and 19.33
performance in the CERAD word list versus placebo ([2]; Day 56, P ≤ 0.05, not corrected for multiplicity, 300 mg q.d. oral 28 d): significantly better
WL Recall ([2]; Day 56): 5 and 4 and 3 and 8 and 10
WL learn ([2]; Day 56): 18 and 16 and 17 and 24 and 30
WL Recall (Word list recall test), Mean ([2]; Day 56, n=9, 300 mg q.d. oral 28 d): 5.4
WL learn, individual patients ([2]; Day 56, 300 mg q.d. oral 28 d): 18 (3×) and 24 and 30 and 17 (2×) and 16 (2×)
verum treated patients with improvement of memory function in the CERAD word list test ([2]; Day 56 versus baseline, of 9 patients, 300 mg q.d. oral 28 d): 9
Cohen's d effect size, WL learn, PRI-002 vs placebo ([2]; day 56, pooled SD, 300 mg q.d. oral 28 d): 0.94
Difference WL learn Baseline (day 1) to EoS (day 56), individual patients ([2]; one line per patient 1-9, 300 mg q.d. oral 28 d): 7 and 4 (2×) and 2 and 5 and 1 and 6 and 3 (2×)
AUC0-4 hour [3]: 33.7 ng·h/mL
partial AUC up to 4 h as percentage of total AUC [3]: 44.2%
PRI-002 plasma level, Mean ([4]; Day 1, 0 h, n=9, MCI/mild AD patients): 0 ng/mL
AUC 0-4 hours, individual patients ([4]; Day 1, one line per patient): 8.54 ng·h/mL
C max (PRI-002 plasma level Day 1), individual patients ([4]; Day 1, one line per patient): 3.43 ng/mL and 1 ng/mL and 2.02 ng/mL and 3.03 ng/mL and 2.84 ng/mL and 10.2 ng/mL and 6.52 ng/mL and 10.4 ng/mL and 0.66 ng/mL and 0.70 ng/mL and 1.00 ng/mL
T max, individual patients ([4]; Day 1, one line per patient): 0.50 h (3×) and 2.00 h and 4.00 h (3×) and 1.00 h (2×)
Css trough ([4]; Day 28 (n=8), Max, MCI/mild AD patients): 7.45
C max, individual patients ([4]; Day 28, one line per patient): 1.76 ng/mL and 18.10 ng/mL and 9.37 ng/mL and 31.40 ng/mL and 2.42 ng/mL and 32.90 ng/mL and 2.24 ng/mL and 2.98 ng/mL
T max, individual patients ([4]; Day 28, one line per patient): 0.50 h (6×) and 4.00 h and 2.00 h
PRI-002 plasma level, individual patients ([4]; day 1, 2 h, one line per patient): 0.878
PRI-002 plasma level, individual patients ([4]; day 1, Pre-dose, one line per patient): 0 ng/mL
AUC(0-t) ([4]; human, plasma, po, 300 mg, plasma, Day 1 (n=9), Mean ± SD, MCI/mild AD patients): 9.98 ± 7.46 ng·h/mL
AUC(0-t) ([4]; human, plasma, po, 300 mg, plasma, Day 28 (n=8), Mean ± SD, MCI/mild AD patients): 26.8 ± 23.8 ng·h/mL
AUC(0-t) ([4]; human, plasma, po, 300 mg, plasma, Day 28 (n=8), Median, MCI/mild AD patients): 20.4 ng·h/mL
Cmax ([4]; human, plasma, po, 300 mg, Cmax, plasma, Day 1 (n=9), Mean ± SD, MCI/mild AD patients): 4.46 ± 3.71 ng/mL
